Read-outs that look alike come from different tables or passages of the source.
Key:
mouse breast cancer = conditions: cited from earlier work
rat prostate cancer = conditions: syngeneic rat prostate cancer; cited from earlier work
sc-urokinase (uPA) = molecular target: T1, sc-urokinase (uPA) (Homo sapiens, UniProt P00749); assay: In-vitro inhibition of urokinase, chromogenic substrate, Dixon Ki; assay type: biochemical
T1 construct: purchased Ribosepharm GmbH, Haan, Germany
Experimental: (§1) The uPA inhibitor activity was determined by incubating 200 μl of Tris buffer (0.05 mol/l, containing the inhibitor, 0.154 mol/l NaCl, 5% ethanol, pH 8.0), 25 μl of substrate (Pefachrome UK or BZ-β-Ala-Gly-Arg-pNA in H2O; Pentapharm Ltd, Basle, Switzerland) and 50 μl of sc-urokinase (Ribosepharm GmbH, Haan, Germany) or another corresponding protease at 25° C. After 3 min, the reaction was interrupted by adding 25 μl of acetic acid (50%) and absorbance at 405 nm was determined by means of a microplate reader (MR 5000, Dynatech, Denkendorf, Germany). The Ki values were determined by linear regression according to Dixon by means of a computer program. The Ki values are the average of at least three determinations, and the standard deviation was below 25%.

Plasmin = Plasmin (Homo sapiens, UniProt P00747); assay: In-vitro protease inhibition, chromogenic substrate, Dixon Ki; assay type: biochemical; conditions: 25° C., pH 8.0
Experimental: as §1

Thrombin = Thrombin (Homo sapiens, UniProt P00734); assay: as above; assay type: biochemical
Experimental: as §1

F Xa = F Xa (Homo sapiens, UniProt P00742); assay: as above; assay type: biochemical
Experimental: as §1

Trypsin = molecular target: T2, Trypsin (UniProt P00760); assay: as above; assay type: biochemical
T2 sequence (P00760 1-246): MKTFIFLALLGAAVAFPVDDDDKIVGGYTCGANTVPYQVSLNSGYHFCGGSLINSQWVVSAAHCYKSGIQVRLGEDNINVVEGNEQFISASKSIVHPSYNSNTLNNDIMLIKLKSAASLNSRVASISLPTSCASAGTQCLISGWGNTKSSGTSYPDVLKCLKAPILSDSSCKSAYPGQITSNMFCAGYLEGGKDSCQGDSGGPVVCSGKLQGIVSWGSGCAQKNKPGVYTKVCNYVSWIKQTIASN
Experimental: The Ki values were determined by linear regression according to Dixon by means of a computer program.

[1] = test system: rat breast adenocarcinoma cells; conditions: after i.v. inoculation of tumor cells; cited from earlier work
[2] = test system: DU145 tumors (a prostate adenocarcinoma cell line); conditions: oral, daily dose of 125 to 250 mg/kg/day; cited from earlier work
[3] = 25° C., pH 8.0, average of at least three determinations, read-out: Ki uPA
[4] = 25° C., pH 8.0, read-out: Ki Thrombin
[5] = 25° C., pH 8.0, read-out: Ki F Xa
[6] = 25° C., pH 8.0; read-out: Ki Trypsin
[7] = Ki uPA, 25° C., pH 8.0, average of at least three determinations
[8] = read-out: Ki Trypsin; 25° C., pH 8.0

F Xa, sequence (P00742 235-488 limits assumed): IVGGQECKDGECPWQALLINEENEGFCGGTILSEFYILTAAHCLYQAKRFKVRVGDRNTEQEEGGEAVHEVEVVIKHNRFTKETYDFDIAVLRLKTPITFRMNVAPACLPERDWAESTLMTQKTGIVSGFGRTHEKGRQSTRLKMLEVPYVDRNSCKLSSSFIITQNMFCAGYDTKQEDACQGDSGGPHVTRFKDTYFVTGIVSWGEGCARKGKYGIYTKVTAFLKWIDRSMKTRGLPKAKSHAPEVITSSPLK
F Xa, sequence (P00742 41-179 partner limits assumed): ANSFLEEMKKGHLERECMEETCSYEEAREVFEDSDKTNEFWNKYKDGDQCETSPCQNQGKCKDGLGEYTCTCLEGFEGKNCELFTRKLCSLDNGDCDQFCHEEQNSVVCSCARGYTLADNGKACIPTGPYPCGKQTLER
Plasmin, sequence (P00747 581-810 limits assumed, species assumed): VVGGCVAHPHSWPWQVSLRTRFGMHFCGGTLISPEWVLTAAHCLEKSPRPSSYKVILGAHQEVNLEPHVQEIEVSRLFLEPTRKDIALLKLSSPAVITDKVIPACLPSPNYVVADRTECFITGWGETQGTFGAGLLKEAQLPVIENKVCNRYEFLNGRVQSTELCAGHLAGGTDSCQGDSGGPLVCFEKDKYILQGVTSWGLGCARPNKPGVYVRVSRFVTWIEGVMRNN
Plasmin, sequence (P00747 97-580 partner limits assumed, species assumed): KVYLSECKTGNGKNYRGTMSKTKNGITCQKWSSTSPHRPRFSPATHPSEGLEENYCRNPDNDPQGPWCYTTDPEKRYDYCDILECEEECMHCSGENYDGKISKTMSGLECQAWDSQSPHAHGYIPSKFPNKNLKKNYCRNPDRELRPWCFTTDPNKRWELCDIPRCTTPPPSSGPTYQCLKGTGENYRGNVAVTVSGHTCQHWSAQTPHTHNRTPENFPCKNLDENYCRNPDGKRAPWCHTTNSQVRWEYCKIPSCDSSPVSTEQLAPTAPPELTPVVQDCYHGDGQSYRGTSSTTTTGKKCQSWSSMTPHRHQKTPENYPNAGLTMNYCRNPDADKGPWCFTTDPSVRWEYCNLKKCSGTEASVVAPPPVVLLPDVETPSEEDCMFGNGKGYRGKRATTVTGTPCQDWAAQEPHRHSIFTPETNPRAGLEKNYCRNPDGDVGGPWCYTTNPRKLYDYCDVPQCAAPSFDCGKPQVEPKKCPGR

Ki (sc-urokinase (uPA); [3]) [µM]	Ki (Plasmin) [µM]	Ki (Thrombin; [4]) [µM]	Ki (F Xa; [5]) [µM]	Ki (Trypsin; [6]) [µM]	SMILES	further results
–	–	–	–	–	N=C(N)c1cc2c(I)cccc2s1 [B428, 4-iodobenzo[b]thiophene-2-carboxamidine]	primary tumor growth (mouse breast cancer; administered together with the antiestrogen tamoxifen): further decrease in primary tumor growth; tumor growth and metastases formation (mouse breast cancer; syngeneic mouse breast cancer): decrease of tumor growth and metastases formation; tumor growth and metastases formation (rat prostate cancer): decrease of tumor growth and metastases formation
36	> 1000	> 1000	> 1000	> 1000	CC(C)(C)OC(=O)NCc1ccc(NC(=N)N)cc1 [ST 242]	–
> 1000	> 1000	> 1000	> 1000	> 1000	N=C(N)Nc1ccc(N)cc1 [ST 267]	–
27	> 1000	> 1000	> 1000	> 1000	CCOC(=O)NCc1ccc(NC(=N)N)cc1 [ST 269]	–
51	> 1000	> 1000	> 1000	> 1000	CC(C)(C)COC(=O)NCc1ccc(NC(=N)N)cc1 [ST 271]	–
52	130	> 1000	> 1000	> 1000	CC(C)OC(=O)NCc1ccc(NC(=N)N)cc1 [ST 273]	–
23	> 1000	> 1000	> 1000	> 1000	N=C(N)Nc1ccc(CNC(=O)OC23C[C@H]4C[C@@H](C2)C[C@@H](C3)C4)cc1 [ST 274]	–
> 1000	> 1000	> 1000	> 1000	> 1000	N=C(N)Nc1ccc(CN)cc1 [ST 275]	–
240	> 1000	> 1000	> 1000	> 1000	CC(=O)Nc1ncc(S(=O)(=O)NCc2ccc(NC(=N)N)cc2)s1 [ST 282]	–
2.4	> 1000	600	> 1000	46	N=C(N)Nc1ccc(CNC(=O)NC23C[C@H]4C[C@@H](C2)C[C@@H](C3)C4)cc1 [ST 293]	uPA inhibition, result in words (sc-urokinase (uPA)): particularly effective and selective inhibitors; Ki (sc-urokinase (uPA); read-out: Ki value for uPA): > 1000 µM
37	> 1000	> 1000	> 1000	> 1000	CC(C)(C)OC(=O)NCC(=O)NCc1ccc(NC(=N)N)cc1 [ST 294]	–
22	> 1000	> 1000	> 1000	42	CC(=O)Nc1ccc(S(=O)(=O)NCC(=O)NCc2ccc(NC(=N)N)cc2)cc1 [ST 296]	–
42	> 1000	> 1000	> 1000	37	CC(C)c1cc(C(C)C)c(S(=O)(=O)NCC(=O)NCc2ccc(NC(=N)N)cc2)c(C(C)C)c1 [ST 298]	–
29	170	> 1000	330	> 1000	N=C(N)Nc1ccc(CNC(=O)Nc2ccccc2)cc1 [ST 301]	–
12	–	> 1000	> 1000	200	N=C(N)Nc1ccc(CNC(=O)OCc2ccc([N+](=O)[O-])cc2)cc1 [ST 311]	–
–	–	–	–	–	CC(C)(c1ccc(OC(=O)NCc2ccc(NC(=N)N)cc2)cc1)c1ccc(OC(=O)NCc2ccc(NC(=N)N)cc2)cc1 [ST 312]	uPA inhibition, result in words (sc-urokinase (uPA)): particularly effective and selective inhibitors; Ki (sc-urokinase (uPA); [7]): 2.8 µM; Ki (sc-urokinase (uPA); Ki value for uPA): > 1000 µM; Ki (Thrombin): > 1000 µM; Ki (F Xa): > 1000 µM; Ki (Trypsin; [8]): 100 µM
35	–	> 1000	> 1000	–	COc1cc(COC(=O)NCc2ccc(NC(=N)N)cc2)c([N+](=O)[O-])cc1OC [ST 313]	–
–	–	–	–	–	N=C(N)Nc1ccc(CNC(=O)Oc2ccc(/N=N/c3ccccc3)cc2)cc1 [ST 315]	Ki (sc-urokinase (uPA); [7]): 11 µM; Ki (sc-urokinase (uPA); Ki value for uPA): > 1000 µM; Ki (Thrombin): > 1000 µM; Ki (F Xa): > 1000 µM; Ki (Trypsin; [8]): 200 µM
–	–	–	–	–	N=C(N)NC(=O)c1nc(Cl)c(N)nc1N [amiloride]	formation of lung metastases [1]: prevents the formation of lung metastases
–	–	–	–	–	N=C(N)c1ccc(N)cc1 [p-Aminobenzamidine]	growth rate of DU145 tumors [2]: distinct decrease in the growth rate; side effects [2]: negligible

Reference: patent publication US7208521B2, “Selective inhibitors of the urokinase plasminogen activator” (Wilex AG, priority 1999, dated 2007)
